# Measured values from patent publication US20090252814A1, “USE OF XENON FOR ORGAN PROTECTION” (priority 2005, published 2009).
# How the values were obtained:
# main organs = conditions: xenon exposure (Natale et al 1998); cited from earlier work
# NMDA receptor = conditions: 80% xenon, cultured hippocampal neurons; cited from earlier work
# kidney = test: Ischaemic-reperfusion renal injury with xenon preconditioning; assay type: in vivo, C57BL/6J mice
# Description: Studies were performed on 8- to 12-wk-old C57BL/6J mice (Jackson Labs, Bar Harbor, Me.) that were fed a standard laboratory diet. All procedures were approved by the Home Office.
# The groups of mice were treated as follows: • Naïve=no anaesthesia and no surgery of any kind was carried out on these mice; • Sham=anaesthesia and surgery was carried out on these mice but there was no clamping of the renal pedicle; • Control (or P20)=anaesthesia and surgery together with clamping of the renal pedicle was carried out on these mice but there was but no xenon preconditioning; • XPD group (or XePC24)=mice were exposed to 75% xenon for two hours (XPD=preconditioned with xenon). The xenon gas was administered to the mice by inhalation. Twenty-four hours after this preconditioning the mice then underwent anaesthesia and surgery together with clamping of the renal pedicle; and • Xe=mice were exposed to 75% xenon for two hours but no surgery together with clamping of the renal pedicle was carried out.
# Renal injury, as described below, was carried out 24 hours after the mice were exposed to xenon. […]
# Kidneys were removed from mice immediately after they were killed, cut in half, fixed in neutral-buffered formalin, and embedded in paraffin. Sections (5 μm thick) of formalin-fixed, paraffin-embedded tissue were mounted on glass slides and stained with haematoxylin-eosin for general histology and quantitative analysis. All tissues were evaluated without investigator knowledge of the group from which it originated.
# For quantification of morphologic data, more than 10 low-magnification fields (×200) including both cortex and outer medulla were randomly selected. […] The total score for each kidney was calculated by addition of all 10 scores (maximum score 30). The histology score was assessed in a blinded manner in each group. […] mice were assessed for the control and XPD groups and four mice were assessed for each of the naïve and sham groups.
# Mean±SEM are presented. The significant difference in mean values was evaluated by either a t test or by Dunnett paired t test for multiple comparisons. […]
# [1] = in combination with oxygen; cited from earlier work
# HIF-1α = HIF-1α expression in neonatal rat brain after xenon (immunohistochemistry and western blot); assay type: in vivo, Sprague Dawley rats
# Description: Studies were performed on Sprague Dawley, 7 day old rats. All procedures were approved by the Home Office.
# The rats were exposed to 75% xenon for two hours. The xenon gas was administered to the rats by inhalation. The brains of said rats were then harvested, as described below, between 0-24 hours after exposure to the xenon gas.
# Paraffin sections (4 μm) were dewaxed in xylene, rehydrated in a series of ethanol washes, and placed in distilled water before staining procedures. Slides were coated with 3-aminopropyl-tri-ethoxysylane.
# For detection of HIF isoforms, monoclonal mouse anti-human HIF-1α antibody (67; Novus Biologicals, Littleton, Colo.) and polyclonal rabbit anti-mouse HIF-2α antibodies (PM8 and PM9, obtained from two different rabbits immunised with a peptide containing amino acids 337 to 439 of mouse HIF-2) were used. PM8 and PM9 were provided by Prof. P H Maxwell, Renal Section, Imperial College London, Hammersmith Campus, Du Cane Road, London, W12 ONN. Specific staining of each HIF-isoform was confirmed in immunoblots by using in vitro transcribed and translated mouse HIF-1 and HIF-2 (TnT T7; Promega, Madison, Wis.) and homogenates of rat endothelial cells.
# For immunohistochemical analyses, antibody 67 was used at a dilution of 1:6000 and antibodies PM8 and PM9 were used at dilutions of 1:3000.
# Detection of bound antibodies was performed by using biotinylated secondary anti-mouse or anti-rabbit antibodies and a catalysed signal amplification system (Dako, Hamburg, Germany) based on the streptavidin-biotin-peroxidase reaction, according to the instructions provided by the manufacturer. Antigen retrieval was performed for 90 seconds in preheated Dako target retrieval solution, using a pressure cooker. All incubations were performed in a humidified chamber. Between incubations, specimens were washed two to four times in buffer (50 mM Tris-HCl, 300 mM NaCl, 0.1% Tween-20, pH 7.6). […]
# erythropoietin (EPO) = test: EPO protein expression in neonatal rat brain (western blot); assay type: in vivo, Sprague Dawley rats; conditions: neonatal rat brains, 75% xenon 2 h, harvested 0-24 h after
# Description: Sprague Dawley, 7 day neonatal rats were used. All procedures were approved by the Home Office.
# The neonatal rats were exposed to 75% xenon for two hours. The gas was administered by gas inhalation. The brains of said rats were then harvested as described below between 0-24 hours after exposure to the xenon gas.
# The tissues were homogenised and western blots of neonatal rat brain samples were carried out as described in Example 1.
# The primary antibodies were anti-α-tubulin antibody, and monoclonal mouse anti-erythropoietin antibody.
# rabbit heart = conditions: xenon during early reperfusion, rabbit heart (Preckel et al 2000); cited from earlier work
# [2] = XePC24 group compared to P20 group (no preconditioning)
structure (smiles),measurement,setting,value
[Xe] [xenon],toxic effects on main organs,main organs,does not induce significant toxic effects
same,reduction of NMDA-activated currents,NMDA receptor,up to 60%
same,morphologic injury in the kidney,"kidney; 75% xenon 2 h, 24 h before 20 min ischaemia and 24 h reperfusion, histology score",decreased
same,amount of creatinine in blood plasma,kidney; [2],significantly decreases
same,amount of urea nitrogen in blood plasma,kidney; [2],significantly decreases
same,concentrations exhibiting anaesthetic effects,[1],10-70 vol. %
same,expression of HIF-1α and HIF-1β in pyramidal cells in the hippocampus,"HIF-1α; 6 hours after exposure to 75% xenon, immunohistochemistry",induces expression
same,HIF-1α positive cells in cortex,"HIF-1α; 6 hrs after 2 h exposure to 75% xenon, immunohistochemistry",clearly detected
same,HIF-1α expression in the brain,"HIF-1α; 7 day old rats, 75% xenon 2 h, brains harvested 0-24 h after, western blot",time-dependent increase
same,expression of EPO protein,erythropoietin (EPO),time-dependent increase
same,infarct size after regional ischaemia,rabbit heart,reduces infarct size
